Laboratory results taken from publication PMC8041708, “Characterization of MK6240, a tau PET tracer, in autopsy brain tissue from Alzheimer’s disease cases” (European Journal of Nuclear Medicine and Molecular Imaging, 2020).
Read-outs that look alike come from different tables or passages of the source.

Key:
[1] = molecular target: ^3H-MK6240 binding sites in the temporal cortex (Homo sapiens, UniProt P10636); assay: Competitive binding assay with ^3H-MK6240 (0.5 nM) on AD temporal cortex homogenates; conditions: for Fraction of sites with super-high affinity for the competitor (%): radioligand ^3H-MK6240, temporal cortex; for IC50: 2-site competition model, temporal cortex
Sequence of ^3H-MK6240 binding sites in the temporal cortex (P10636 623-695 limits assumed): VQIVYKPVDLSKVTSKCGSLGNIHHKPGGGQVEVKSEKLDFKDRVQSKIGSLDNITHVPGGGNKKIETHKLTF
Method: (§1) Frozen post-mortem tissue from eight AD and seven control brains from the Netherlands Brain Bank (NBB) was homogenized in phosphate buffer saline (PBS) with additional 0.1% bovine serum albumin (BSA; […]) and protease/phosphatase inhibitors (10 μL/mL).
Competitive binding assays with ^3H-MK6240 (0.5 nM) were carried out for 90 min at 37 °C on temporal cortex homogenates from two AD brains, in PBS + 0.1% BSA (pH 7.4), using increasing concentrations of unlabelled MK6240, unlabelled THK5117 or unlabelled AV-1451 (1.10^−14–1.10^−5 M). The binding assay was terminated as described above. The half-maximal […] concentration (IC50) was determined using GraphPad Prism software and data were analysed using a 2-site competition model.

[2] = system: ^3H-THK5351 binding sites in the hippocampus; assay: Competitive binding assay with ^3H-THK5351 (1.5 nM) on AD hippocampus homogenates; design: species or system human
Method: as §1
Competitive binding assays were also carried out with ^3H-THK5351 (1.5 nM) in PBS + 0.1% BSA (pH 7.4) on hippocampus homogenates, using increasing concentrations of unlabelled MK6240 (1.10^−14–1.10^−5 M) in PBS + 0.1% BSA for 2 h at room temperature.

[3] = system: ^3H-AV-1451 binding sites; design: method as in Hostetler et al. [21]; conditions: ref Hostetler et al. [21]; cited from earlier work
[4] = system: ^3H-THK5351 binding sites in the hippocampus; design: method as in Lemoine et al. [12]; conditions: ref Lemoine et al. [12], cited from earlier work; for Fraction of sites with super-high affinity for the competitor (%): radioligand ^3H-THK5351
AD tissue = conditions: ref [7], [21], cited from earlier work
[5] = system: ^18F-AV-1451 binding sites in AD brains; design: method as in Ni et al. (unpublished data); conditions: versus ^18F-AV-1451, ref Ni et al. (unpublished data), cited from earlier work
[6] = site 1, super-high affinity, read-out: IC50(supHigh)
[7] = site 2, high affinity, read-out: IC50(High)

| High affinity sites, fraction ([1]; ^3H-MK6240 competitions) | Fraction of sites with super-high affinity for the competitor (%) [1] | IC50 [1, 7] | Fraction of sites with super-high affinity for the competitor (%) ([2]; radioligand ^3H-THK5351, hippocampus) | Competition with ^3H-THK5351 ([2]; unlabelled MK6240 1.10^-14-1.10^-5 M, hippocampus of three AD patients) | Structure (SMILES) | IC50 [1, 6] | Competition with ^3H-AV-1451 [3] | Low affinity sites, fraction ([4]; ^3H-THK5351 competitions) | Fraction of sites with super-high affinity for the competitor (%) [4] | Kd (AD tissue; unit inferred) | Proportion of sites with high affinity for the competitor ([5]; frontal cortex) | Proportion of sites with high affinity for the competitor ([5]; temporal cortex of AD brains) | High affinity sites, fraction ([4]; ^3H-THK5351 competitions) | Low affinity sites, fraction ([1]; ^3H-MK6240 competitions) | IC50 ([1]; site 2, low affinity, read-out: IC50(low)) | Kd (AD tissue) |
| --- | --- | --- | --- | --- | --- | --- | --- | --- | --- | --- | --- | --- | --- | --- | --- | --- |
| 42% | 58% | 12 nM | 0% | did not compete | Nc1c(F)ccc2cnc(-n3ccc4ccncc43)cc12 [MK6240] | 0.001 nM | lack of competition |  |  |  |  |  |  |  |  |  |
| 26% | 74% | 2 nM |  |  | Fc1ccc(-c2ccc3c(c2)[nH]c2ccncc23)cn1 [AV-1451] |  |  | 65% | 35% | 0.6 to 3.7 nM | 61% | 88% |  |  |  |  |
|  |  |  |  |  | CNc1ccc(-c2ccc3cc(OC[C@H](O)CF)ccc3n2)cn1 [THK5351] |  |  |  | 62% |  |  |  | 38% |  |  |  |

| Structure (SMILES) | High affinity sites, fraction ([1]; ^3H-MK6240 competitions) | Fraction of sites with super-high affinity for the competitor (%) [1] | IC50 [1, 7] | Fraction of sites with super-high affinity for the competitor (%) ([2]; radioligand ^3H-THK5351, hippocampus) | Competition with ^3H-THK5351 ([2]; unlabelled MK6240 1.10^-14-1.10^-5 M, hippocampus of three AD patients) | IC50 [1, 6] | Competition with ^3H-AV-1451 [3] | Low affinity sites, fraction ([4]; ^3H-THK5351 competitions) | Fraction of sites with super-high affinity for the competitor (%) [4] | Kd (AD tissue; unit inferred) | Proportion of sites with high affinity for the competitor ([5]; frontal cortex) | Proportion of sites with high affinity for the competitor ([5]; temporal cortex of AD brains) | High affinity sites, fraction ([4]; ^3H-THK5351 competitions) | Low affinity sites, fraction ([1]; ^3H-MK6240 competitions) | IC50 ([1]; site 2, low affinity, read-out: IC50(low)) | Kd (AD tissue) |
| --- | --- | --- | --- | --- | --- | --- | --- | --- | --- | --- | --- | --- | --- | --- | --- | --- |
| CNc1ccc(-c2ccc3cc(OCC(O)CF)ccc3n2)cc1 (stereo not drawn) [THK5117] |  | 37% |  |  |  | 0.002 nM |  |  | 46% |  |  |  | 54% | 63% | 304 nM | 2.2 nM |
